Test results taken from patent US20050197331A1, “Novel anti-inflammatory and analgesic heterocyclic amidines that inhibit nitrogen oxide (NO) production” (ROTTAPHARM SPA, priority 2004, published 2005).
Where a name gives a salt, the structure may show the parent alone. Read-outs that look alike come from different tables or passages of the source.

Key:
[1] = test system: formation of NO measured as NO2^− (nitrite); assay: Inhibition of NO (nitrite) formation in rabbit articular chondrocytes stimulated with IL-1β; format: cell-based; settings: for IC50: Oryctolagus cuniculus, Chondrocyte
Description: (§1) a) The inhibitory activity on the formation of NO measured as NO2^− (nitrite) and PGE2 was studied in vitro on culture media of rabbit articular chondrocytes stimulated with the cytokine IL-1β (1 ng/ml) for 48 hours. For the preparation of the chondrocytes, the method described by Berenbaum et al. [FEBS Letters 340, 51-55 (1994)] was followed. Briefly, fragments of cartilage removed aseptically from the articular heads of rabbit shoulder, hip and knee were finely ground and digested at 37° C. in hyaluronidase, trypsin and collagenase solutions, giving, after filtration through sterile gauze and centrifugation at 600×g and suitable dilution with 10% DMEM-FCS 10%, a concentration per well of about 1×10^5 cells. The cells were maintained under these conditions until confluent (about 15 days), the medium being replaced every 3 days. At this point, the test products dissolved in the medium were added to each sample and, after 20 minutes, 350 μl of IL-1β were added, to give a final concentration of 1 ng/ml. The stimulation lasted 48 hours at 37° C. (incubation in air/7% CO2). A nitrite assay was subsequently performed on the cell supernatant, as described by Green et al. [Anal. Biochem. 126, 131-138 (1982)], and of PGE2 by RIA assay. The results obtained are shown in Table 3, in which is given, for a number of the compounds that are the subject of the invention and that are already illustrated in Table 1, the IC50, i.e. the concentration (micromolar) of antagonist capable of inhibiting the formation of nitrites and PGE2 by 50% relative to the control group, i.e. relative to the cells stimulated with IL-1β but without addition of antagonists.

PGE2 = assay: Inhibition of PGE2 formation in rabbit articular chondrocytes stimulated with IL-1β (RIA); format: cell-based
Description: as §1

[2] = rabbit articular chondrocytes stimulated with IL-1β, read-out: IC50, production of NO
[3] = rabbit articular chondrocytes, IL-1β 1 ng/ml, 48 hours, nitrite in supernatant, read-out: Inhibition % IC50 NO
[4] = Oryctolagus cuniculus, Chondrocyte, rabbit articular chondrocytes, IL-1β 1 ng/ml, 48 hours, RIA, read-out: Inhibition % IC50 PGE2
[5] = rabbit articular chondrocytes stimulated with IL-1β
[6] = Oryctolagus cuniculus, Chondrocyte, rabbit articular chondrocytes stimulated with IL-1β, read-out: IC50, formation of PGE2
[7] = rabbit articular chondrocytes, IL-1β 1 ng/ml, 48 hours, RIA

| Compound | melting point [°C] | IC50 [1, 3] [µM] | IC50 (PGE2; [4]) [µM] | other results |
| --- | --- | --- | --- | --- |
| CC(=N)Nc1ccc2[nH]c(-c3cccc(C(F)(F)F)c3)nc2c1 (as salt: hydrobromid) [Compound 36, N-[2-(3-trifluoromethylphenyl)benzimidazole-5-yl]acetamidine hydrobromide] | 284.3 to 285.4 |  |  |  |
| CC(=N)Nc1ccc2[nH]c(-c3ccccc3F)nc2c1 (as salt: hydrobromid) [Compound 38, N-[2-(2-fluorophenyl)benzimidazol-5-yl]acetamidine hydrobromide] | 266.8 to 269 |  |  |  |
| COc1ccc(S(N)(=O)=O)cc1-c1nc2cc(NC(C)=N)ccc2s1 (as salt: hydrochloride) [Compound 13, N-[2-(5-aminosulfonyl-2-methoxyphenyl)benzothiazol-5-yl]acetamidine hydrochloride] | 244 to 248 |  |  |  |
| CC(=N)Nc1ccc2[nH]c(-c3ccc(F)cc3)nc2c1 (as salt: hydrochloride) [Compound 19, N-[2-(4-fluorophenyl)benzimidazol-5-yl]acetamidine dihydrochloride] | 283.7 to 286.3 |  |  |  |
| CC(=N)Nc1ccc2[nH]c(-c3ccccc3)nc2c1 (as salt: hydrochloride) [Compound 21, N-(2-phenyl-3H-benzimidazol-5-yl)acetamidine hydrochloride] | 164 to 166 |  |  |  |
| CCCCCc1nc2ccc(NC(C)=N)cc2[nH]1 (as salt: hydrochloride) [Compound 22, N-(2-pentyl-3H-benzimidazol-5-yl)acetamidine dihydrochloride] | 276.9 to 278.3 |  |  |  |
| CC(=N)Nc1ccc2[nH]c(-c3ccc[nH]3)nc2c1 (as salt: hydrochloride) [Compound 23, N-[2-(pyrrol-2-yl)-3H-benzimidazol-5-yl]acetamidine dihydrochloride] | 318 to 322 |  |  |  |
| COC(=O)c1ccc(-c2nc3cc(NC(C)=N)ccc3[nH]2)cc1 (as salt: hydrochloride) [Compound 25, Methyl 4-(5-acetimidoylamino-1H-benzimidazol-2-yl)benzoate hydrochloride] | 284 to 288 |  |  |  |
| CC(=N)Nc1ccc2nc(-c3ccccc3)ncc2c1 (as salt: hydrochloride) [Compound 27, N-(2-phenylquinazolin-6-yl)acetamidine dihydrochloride] | 162 to 168 |  |  |  |
| COc1ccccc1-c1nc2cc(NC(C)=N)ccc2n1C (as salt: hydrochloride) [Compound 43, N-[1-methyl-2-(2-methoxyphenyl)benzimidazol-5-yl]acetamidine dihydrochloride] | 253.1 to 254.7 |  |  |  |
| CCCCCc1nc2ccc(NC(C)=N)cc2s1 [Compound 4, N-(2-pentylbenzothiazol-6-yl)acetamidine] | 112.6 to 114.7 | 6.9 | 6.6 | IC50 [1, 2]: 3 to 8 µM |
| CC(=N)Nc1ccc2sc(Cc3ccccc3)nc2c1 [Compound 11, N-[2-benzylbenzothiazol-5-yl]acetamidine] | 117.9 to 120 | 15 | 7.4 |  |
| CC(=N)Nc1ccc2sc(/C=C/c3ccccc3)nc2c1 [Compound 12, N-[2-styrylbenzothiazol-5-yl]acetamidine] | 90.8 to 91.8 | 88.9 | 1.3 | inhibiting the production of NO (in words) [1, 5]: little activity; IC50, formation of PGE2 (PGE2; [5]): sub-micromolar |
| COc1ccc(S(N)(=O)=O)cc1-c1nc2cc(NC(C)=N)ccc2s1 [Compound 13, N-[2-(5-aminosulfonyl-2-methoxyphenyl)benzothiazol-5-yl]acetamidine hydrochloride] |  |  | 16.2 |  |
| CC(=N)Nc1ccc2sc(-c3ccccn3)nc2c1 [Compound 14, N-[2-(2-pyridyl)benzothiazol-5-yl]acetamidine] | 187.2 to 188.9 |  | 42.5 |  |
| CC(=N)Nc1ccc2[nH]c(-c3ccc(F)cc3)nc2c1 [Compound 19, N-[2-(4-fluorophenyl)benzimidazol-5-yl]acetamidine dihydrochloride] |  | 78 | 0.7 | inhibiting the production of NO (in words) [1, 5]: little activity; IC50 (PGE2; [6]): 0.3 to 0.8 µM; IC50, formation of PGE2 (PGE2; [5]): sub-micromolar |

| Compound | melting point [°C] | IC50 [1, 3] [µM] | IC50 (PGE2; [4]) [µM] | other results |
| --- | --- | --- | --- | --- |
| CC(=N)Nc1ccc2[nH]c(-c3ccc(Cl)cc3)nc2c1 [Compound 20, N-[2-(4-chlorophenyl)benzimidazol-5-yl]acetamidine] | 153.6 to 156 | 22.8 | 0.4 | inhibiting the production of NO (in words) [1, 5]: little activity; IC50 (PGE2; [6]): 0.3 to 0.8 µM; IC50, formation of PGE2 (PGE2; [5]): sub-micromolar |
| CC(=N)Nc1ccc2[nH]c(-c3ccccc3)nc2c1 [Compound 21, N-(2-phenyl-3H-benzimidazol-5-yl)acetamidine hydrochloride] |  | 84.5 | 0.8 | inhibiting the production of NO (in words) [1, 5]: little activity; IC50 (PGE2; [6]): 0.3 to 0.8 µM; IC50, formation of PGE2 (PGE2; [5]): sub-micromolar |
| CCCCCc1nc2ccc(NC(C)=N)cc2[nH]1 [Compound 22, N-(2-pentyl-3H-benzimidazol-5-yl)acetamidine dihydrochloride] |  | 123 | 31.5 |  |
| CC(=N)Nc1ccc2[nH]c(-c3ccc[nH]3)nc2c1 [Compound 23, N-[2-(pyrrol-2-yl)-3H-benzimidazol-5-yl]acetamidine dihydrochloride] |  | 250 | 2 |  |
| Br.CC(=N)Nc1ccc2nc(-c3ccc[nH]3)[nH]c2c1 [Compound 24, N-[2-(pyrrol-2-yl)-3H-benzimidazol-5-yl]acetamidine hydrobromide] | 197 to 199 |  |  |  |
| COC(=O)c1ccc(-c2nc3cc(NC(C)=N)ccc3[nH]2)cc1 [Compound 25, Methyl 4-(5-acetimidoylamino-1H-benzimidazol-2-yl)benzoate hydrochloride] |  | 174 |  | Inhibition % IC50 PGE2 (PGE2; [7]): IN (IN = <25% inhibitory activity at 30 × 10^−6M) |
| CC(=N)Nc1ccc2[nH]c(-c3ccc(C(=O)O)cc3)nc2c1 [Compound 26, 4-(5-acetimidoylamino-1H-benzimidazol-2-yl)benzoic acid] | 271.5 to 274.3 |  |  | Inhibition % IC50 PGE2 (PGE2; [7]): IN (IN = <25% inhibitory activity at 30 × 10^−6M) |
| CC(=N)Nc1ccc2oc(-c3cccc(C(F)(F)F)c3)nc2c1 [Compound 31, N-[2-(3-trifluromethylphenyl)benzoxazol-5-yl]acetamidine] | 157.9 to 159.2 | 11.2 | 2.9 |  |
| CC(=N)Nc1ccc2oc(-c3ccc(C(F)(F)F)cc3)nc2c1 [Compound 32, N-[2-(4-trifluromethylphenyl)benzoxazol-5-yl]acetamidine] | 179.2 to 181 | 8.1 | 0.6 |  |
| CC(=N)Nc1ccc2oc(-c3ccccc3F)nc2c1 [Compound 33, N-[2-(2-fluorophenyl)benzoxazol-5-yl]acetamidine] | 157.9 to 159.2 | 47 | 13.8 |  |
| CC(=N)Nc1ccc2oc(-c3ccc(Cl)c(Cl)c3)nc2c1 [Compound 34, N-[2-(3,4-dichlorophenyl)benzoxazol-5-yl]acetamidine] | 182 to 184 | 4.3 | 0.4 | IC50 [1, 2]: 3 to 8 µM; IC50 (PGE2; [6]): 0.3 to 0.8 µM |
| CC(=N)Nc1ccc2[nH]c(-c3cccc(C(F)(F)F)c3)nc2c1 [Compound 36, N-[2-(3-trifluoromethylphenyl)benzimidazole-5-yl]acetamidine hydrobromide] |  |  |  | Inhibition % IC50 PGE2 (PGE2; [7]): IN (IN = <25% inhibitory activity at 30 × 10^−6M) |
| CC(=N)Nc1ccc2[nH]c(-c3ccccc3F)nc2c1 [Compound 38, N-[2-(2-fluorophenyl)benzimidazol-5-yl]acetamidine hydrobromide] |  |  |  | Inhibition % IC50 PGE2 (PGE2; [7]): IN (IN = <25% inhibitory activity at 30 × 10^−6M) |
| CC(=N)Nc1ccc2sc(-c3ccc[nH]3)nc2c1 [Compound 40, N-[2-(pyrrol-2-yl)benzothiazol-5-yl]acetamidine] | 166.7 to 169.1 |  | 8.4 |  |
| COc1ccccc1-c1[nH]c2ccc(NC(C)=N)cc2[n+]1C [Compound 44, N-[1-methyl-2-(2-methoxyphenyl)benzimidazol-6-yl]acetamidine] | 205.6 to 207.1 |  |  |  |
| N-[2-phenylbenzothiazol-5-yl]cyclopropylcarboxamidine [Compound 41] |  |  |  | Inhibition % IC50 NO ([1]; rabbit articular chondrocytes, IL-1β 1 ng/ml, 48 hours, nitrite in supernatant): IN (IN = <25% inhibitory activity at 30 × 10^−6M); IC50 (PGE2; rabbit articular chondrocytes, IL-1β 1 ng/ml, 48 hours, RIA, read-out: Inhibition % IC50 PGE2): 4 µM |
